Test results as given in patent US7776566B2, “Method for producing purine nucleoside by fermentation” (priority 1997, dated 2010).

Tests used:
Type in all cases: biochemical, E. coli
[1] = molecular target: T1, PRPP synthetase (Prs) D128A (Escherichia coli, UniProt P0A717, D129A); assay: PRPP synthetase activity of crude enzyme extracts and inhibition by ADP (mutant prsDA); conditions: mutant type
T1 construct: made in house; host or cells: E. coli JM109 (crude enzyme extract)
Description: A prs fragment was excised from the plasmid carrying the prs of about 1 kb cloned in Section 1) by SalI and SphI digestion, and inserted between the SalI and SphI sites of the multi-cloning site of a plasmid for introducing mutation, pKF19k (Takara Shuzo) to obtain the target clone (pKFprs). […] It is also described that the enzyme whose Asp (D) at position 128 is mutated to Ala (A) is partially desensitized. Therefore, the following synthetic DNA primer was prepared for gene substitution realizing mutation of Asp (D) at position 128 PRPP synthetase (Prs) to Ala (A), and pKFprs was subjected to site-directed mutagenesis according to the protocol of Site-directed Mutagenesis System Mutan-Super Express Km (Takara Shuzo) to introduce a site-directed mutation into the pKFprs. […]
Recombinant bacteria obtained by transforming E. coli JM109 cells with the above four plasmids were cultured in LB liquid medium for eight hours, and collected, and crude enzyme extracts were prepared from them. The PRPP synthetase activity of the extracts and degrees of inhibition by ADP were measured according to the method of K. F. Jensen et al. (Analytical Biochemistry, 98, 254-263 (1979)) which was partially modified. Specifically, [a-^32P]ATP was used as the substrate and [^32P]AMP produced by the reaction was measured.

[2] = molecular target: T2, PRPP amidotransferase (PurF) K326Q (Escherichia coli, UniProt P0AG16, K327Q); assay: PRPP amidotransferase activity of crude enzyme extracts and inhibition by AMP and GMP (mutant purF, pKFpurFKQ); conditions: JM109/pKFpurFKQ crude extract, activity with None 0.34
T2 construct: made in house; host or cells: E. coli JM109 (crude enzyme extract)
T2 sequence (P0AG16 2-505 K327Q): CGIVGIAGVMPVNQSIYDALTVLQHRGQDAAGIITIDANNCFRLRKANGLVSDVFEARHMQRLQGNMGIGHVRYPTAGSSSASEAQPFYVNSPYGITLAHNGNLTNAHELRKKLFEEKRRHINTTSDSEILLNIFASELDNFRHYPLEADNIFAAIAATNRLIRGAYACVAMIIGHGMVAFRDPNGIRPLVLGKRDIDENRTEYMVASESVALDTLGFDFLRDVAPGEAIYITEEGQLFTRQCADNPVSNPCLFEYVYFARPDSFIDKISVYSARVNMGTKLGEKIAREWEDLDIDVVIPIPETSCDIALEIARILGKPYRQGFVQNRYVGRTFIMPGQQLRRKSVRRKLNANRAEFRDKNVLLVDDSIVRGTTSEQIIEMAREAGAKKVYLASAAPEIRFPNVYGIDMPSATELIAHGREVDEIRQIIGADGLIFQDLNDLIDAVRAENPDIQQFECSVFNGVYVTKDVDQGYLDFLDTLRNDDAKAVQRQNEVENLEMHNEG
Description: (§1) A purF fragment was excised from the plasmid carrying the purF of about 1530 bp cloned into pCRTMII vector (Invitrogen) in Section 1) by digestion with PstI and HindIII, and inserted between the PstI and HindIII sites of the multi-cloning site of a plasmid for introducing mutation, pKF18 (Takara Shuzo) to obtain the target clone (pKFpurF). […] Therefore, the following synthetic DNA primers were prepared for gene substitution realizing mutations of Lys (K) at position 326 and Pro (P) at position 410 of PRPP amidotransferase (PurF) to Gln (Q) and Trp (W), respectively, and pKFpurF was subjected to site-directed mutagenesis according to the protocol of Site-directed Mutagenesis System Mutan-Super Express Km (Takara Shuzo) to introduce a site-directed mutation into the pKFpurF.
(§2) After the mutagenesis, 6 clones were randomly picked up from each of the resulting transformants, and plasmids were prepared from them. […]
(§3) Recombinant bacteria obtained by transforming E. coli JM109 cells with the above plasmids were cultured in LB liquid medium for eight hours, and collected, and crude enzyme extracts were prepared from them. The PRPP amidotransferase activity of the extracts and degrees of inhibition by AMP and GMP were measured according to the method of L. J. Messenger (J. Biol. Chem., 254, 3382 (1979)).

[3] = molecular target: T3, PRPP amidotransferase (PurF) K326Q + P410W (Escherichia coli, UniProt P0AG16, K327Q/P411W); assay: PRPP amidotransferase activity of crude enzyme extracts and inhibition by AMP and GMP (mutant purF, pKFpurFKQPW); conditions: JM109/pKFpurFKQPW crude extract, activity with None 0.18
T3 construct: made in house; host or cells: E. coli JM109 (crude enzyme extract)
T3 sequence (P0AG16 2-505 K327Q/P411W): as the sequence (P0AG16 2-505 K327Q) above, with P410W counted along it
Description: as §1, §2, §3

[4] = molecular target: T4, PRPP amidotransferase (PurF), wild type (Escherichia coli, UniProt P0AG16); assay: PRPP amidotransferase activity of crude enzyme extracts and inhibition by AMP and GMP (wild type purF, pKFpurF); conditions: JM109/pKFpurF crude extract, activity with None 0.68
T4 construct: made in house; host or cells: E. coli JM109 (crude enzyme extract)
T4 sequence (P0AG16 2-505): as the sequence (P0AG16 2-505 K327Q) above, with Q326K counted along it
Description: as §3

For `Nc1ncnc2c1ncn2[C@@H]1O[C@H](COP(=O)(O)OP(=O)(O)O)[C@@H](O)[C@H]1O` [ADP, adenosine diphosphate], the “PRPP synthetase (Prs) specific activity, 5 mM ADP” value ([1]; JM109/pSTVprsDA, medium copy, activity with None 10.6) was 2.7 nmole/min/mg crude enzyme extract and the “PRPP synthetase (Prs) specific activity, 5 mM ADP” value ([1]; JM109/pUCprsDA, high copy, activity with None 80.8) was 20.2 nmole/min/mg crude enzyme extract.

`Nc1ncnc2c1ncn2[C@@H]1O[C@H](COP(=O)(O)O)[C@@H](O)[C@H]1O` [AMP, adenosine monophosphate] was tested, and the “PRPP amidotransferase activity, 10 mM AMP” value ([2]; 10 mM AMP) was 0.32 µmol/min/mg, the “PRPP amidotransferase activity, 10 mM AMP” value ([3]; 10 mM AMP) was 0.16 µmol/min/mg and the “PRPP amidotransferase activity, 10 mM AMP” value ([4]; 10 mM AMP) was 0.48 µmol/min/mg.

`Nc1nc2c(ncn2[C@@H]2O[C@H](COP(=O)(O)O)[C@@H](O)[C@H]2O)c(=O)[nH]1` [GMP, guanosine monophosphate] was tested, and the “PRPP amidotransferase activity, 10 mM GMP” value ([2]; 10 mM GMP) was 0.33 µmol/min/mg, the “PRPP amidotransferase activity, 10 mM GMP” value ([3]; 10 mM GMP) was 0.17 µmol/min/mg and the “PRPP amidotransferase activity, 10 mM GMP” value ([4]; 10 mM GMP) was 0.10 µmol/min/mg.
